Data as given in US9169254B2, “Spiroimidazolone derivative” (Chugai Seiyaku Kabushiki Kaisha, priority 2009, dated 2015).

The compounds below were run against T1, human PTH1 receptor (Homo sapiens, UniProt Q03431) (assay: In vitro cAMP signal activity in HKRK-B7 cells (LLC-PK1 cells overexpressing the human PTH1 receptor)). Details: HKRK-B7 cells; compound at 1×10^−3 M; […]; 0.1 µM.
T1 sequence (Q03431 27-593): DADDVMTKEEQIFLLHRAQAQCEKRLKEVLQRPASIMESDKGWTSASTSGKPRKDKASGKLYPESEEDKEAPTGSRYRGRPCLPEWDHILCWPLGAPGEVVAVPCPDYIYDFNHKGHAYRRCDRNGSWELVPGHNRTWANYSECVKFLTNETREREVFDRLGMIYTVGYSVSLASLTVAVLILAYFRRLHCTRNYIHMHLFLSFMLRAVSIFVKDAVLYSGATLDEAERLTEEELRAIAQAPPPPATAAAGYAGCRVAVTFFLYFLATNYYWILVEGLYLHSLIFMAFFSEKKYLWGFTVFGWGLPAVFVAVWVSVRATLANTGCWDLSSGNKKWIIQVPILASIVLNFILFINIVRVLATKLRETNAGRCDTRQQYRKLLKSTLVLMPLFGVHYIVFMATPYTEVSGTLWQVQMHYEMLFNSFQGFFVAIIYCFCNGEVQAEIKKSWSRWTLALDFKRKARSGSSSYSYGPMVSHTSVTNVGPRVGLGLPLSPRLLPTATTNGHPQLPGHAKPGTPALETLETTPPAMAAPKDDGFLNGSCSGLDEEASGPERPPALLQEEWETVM
Type: cell-based

With `Cc1cc(N(C)C(N)=S)cc(C)c1CCS(=O)(=O)N1CCC2(CC1)N=C([C@H]1CC[C@H](C)CC1)NC2=O` [Compound 474, 1-(3,5-Dimethyl-4-{2-[2-(4-methyl-cyclohexyl)-4-oxo-1,3,8-triaza-spiro[4.5]dec-1-ene-8-sulfonyl]-ethyl}-phenyl)-1-methyl-thiourea] the “cAMP production activity (%)” value was 89%.

Same assay, conditions: HKRK-B7 cells; compound at 1×10^−3 M; cAMP produced as percentage of that produced by hPTH(1-34) at 100 nM

Point of comparison: `Cc1ccccc1C#CS(=O)(=O)N1CCC2(CC1)N=C(C1CCCCC1)NC2=O` [Compound 1376, 2-Cyclohexyl-8-(2-o-tolyl-ethynesulfonyl)-1,3,8-triaza-spiro[4.5]dec-1-en-4-one], “cAMP production activity (%)” value 42%. Against it:
- Cc1cc(N2C(=O)CNC2=O)ccc1CCS(=O)(=O)N1CCC2(CC1)N=C(C1CCC(C)CC1)NC2=O (stereo not drawn) [Compound 881, 3-(3-methyl-4-{2-[2-(4-methyl-cyclohexyl)-4-oxo-1,3,8-triaza-spiro[4.5]dec-1-ene-8-sulfonyl]-ethyl}-phenyl)-imidazolidine-2,4-dione] — higher, 48%
- Cc1cc(N2C(=O)NC(COC(C)(C)C)C2=O)cc(C)c1CCS(=O)(=O)N1CCC2(CC1)N=C([C@H]1CC[C@H](C)CC1)NC2=O (stereo partly drawn) [Compound 833, 5-tert-butoxymethyl-3-(3,5-dimethyl-4-{2-[2-(4-methyl-cyclohexyl)-4-oxo-1,3,8-triaza-spiro[4.5]dec-1-ene-8-sulfonyl]-ethyl}-phenyl)-imidazolidine-2,4-dione] — lower, 34%
- O=C1NC(c2cccc(OC(F)(F)F)c2)=NC12CCN(S(=O)(=O)c1cccc(Cl)c1)CC2 [Compound 13, 8-(3-chloro-benzenesulfonyl)-2-(3-trifluoromethoxy-phenyl)-1,3,8-triaza-spiro[4.5]dec-1-en-4-one] — lower, 31%
- O=C1NC(C2CCCCC2)=NC12CCN(S(=O)(=O)/C=C/C1CCCC1)CC2 [Compound 344, 2-cyclohexyl-8-((E)-2-cyclopentyl-ethenesulfonyl)-1,3,8-triaza-spiro[4.5]dec-1-en-4-one] — lower, 35%
- CC(=O)N(C)c1c(C)cc(CCS(=O)(=O)N2CCC3(CC2)N=C(C2CCC(C)CC2)NC3=O)cc1C (stereo not drawn) [Compound 783, N-(2,6-dimethyl-4-{2-[2-(4-methyl-cyclohexyl)-4-oxo-1,3,8-triaza-spiro[4.5]dec-1-ene-8-sulfonyl]-ethyl}-phenyl)-N-methyl-acetamide] — higher, 50%
- Cc1cc(C(=O)N2CCC(O)(CF)CC2)cc(C)c1/C=C/S(=O)(=O)N1CCC2(CC1)N=C(c1ccc(OC(F)(F)F)cc1)NC2=O [Compound 1269, 8-{(E)-2-[4-(4-fluoromethyl-4-hydroxy-piperidine-1-carbonyl)-2,6-dimethyl-phenyl]-ethenesulfonyl}-2-(4-trifluoromethoxy-phenyl)-1,3,8-triaza-spiro[4.5]dec-1-en-4-one] — higher, 92%
- Cc1cc(C(=O)N2CCC(C)(O)CC2)cc(C)c1/C=C/S(=O)(=O)N1CCC2(CC1)N=C(c1ccc3c(c1)OCO3)NC2=O [Compound 1194, 2-benzo[1,3]dioxol-5-yl-8-{(E)-2-[4-(4-hydroxy-4-methyl-piperidine-1-carbonyl)-2,6-dimethyl-phenyl]-ethenesulfonyl}-1,3,8-triaza-spiro[4.5]dec-1-en-4-one] — higher, 62%
- O=C1NC(C2CCCCC2)=NC12CCCN(S(=O)(=O)c1cccc(Cl)c1)CC2 (stereo not drawn) [Compound 70, 8-(3-Chloro-benzenesulfonyl)-2-cyclohexyl-1,3,8-triaza-spiro[4.6]undec-1-en-4-one] — lower, 31%
- Cc1cc(N(C)C(N)=O)cc(C)c1/C=C/S(=O)(=O)N1CCC2(CC1)N=C(CCCCCCCCCCCN)NC2=O [Compound 1315, 1-(4-{(E)-2-[2-(11-Amino-undecyl)-4-oxo-1,3,8-triaza-spiro[4.5]dec-1-ene-8-sulfonyl]-vinyl}-3,5-dimethyl-phenyl)-1-methyl-urea] — higher, 76%
- Cc1cc(N(C)C(=O)CO)ccc1/C=C/S(=O)(=O)N1CCC2(CC1)N=C(c1cccc(OC(F)(F)F)c1)NC2=O [Compound 451, 2-Hydroxy-N-methyl-N-(3-methyl-4-{(E)-2-[4-oxo-2-(3-trifluoromethoxy-phenyl)-1,3,8-triaza-spiro[4.5]dec-1-ene-8-sulfonyl]-vinyl}-phenyl)-acetamide] — higher, 96%
- Cc1cc(C(=O)N2CCC(C)(O)CC2)cc(C)c1/C=C/S(=O)(=O)N1CCC2(CC1)N=C(c1ccc(OC(F)(F)F)c(OCCCC(F)(F)F)c1)NC2=O [Compound 1232, 8-{(E)-2-[4-(4-hydroxy-4-methyl-piperidine-1-carbonyl)-2,6-dimethyl-phenyl]-ethenesulfonyl}-2-[3-(4,4,4-trifluoro-butoxy)-4-trifluoromethoxy-phenyl]-1,3,8-triaza-spiro[4.5]dec-1-en-4-one] — higher, 106%
- Cc1cc(C(=O)N2CCOC2=O)cc(C)c1/C=C/S(=O)(=O)N1CCC2(CC1)N=C(C1CCCCC1)NC2=O [Compound 1007, 2-Cyclohexyl-8-{(E)-2-[2,6-dimethyl-4-(2-oxo-oxazolidine-3-carbonyl)-phenyl]-ethenesulfonyl}-1,3,8-triaza-spiro[4.5]dec-1-en-4-one] — lower, 20%
- O=C1NC(C2CCCCC2)=NC12CCN(S(=O)(=O)CCc1cccc3c1ccn3CCC(O)CO)CC2 (stereo not drawn) [Compound 748, 2-cyclohexyl-8-{2-[1-(3,4-dihydroxy-butyl)-1H-indol-4-yl]-ethanesulfonyl}-1,3,8-triaza-spiro[4.5]dec-1-en-4-one] — higher, 61%
- Cc1cc(C(=O)N2CCC(O)(CF)CC2)cc(C)c1CCS(=O)(=O)N1CCC2(CC1)N=C(c1ccc(C(F)(F)F)c(Cl)c1)NC2=O [Compound 1278, 2-(3-chloro-4-trifluoromethyl-phenyl)-8-{2-[4-(4-fluoromethyl-4-hydroxy-piperidine-1-carbonyl)-2,6-dimethyl-phenyl]-ethanesulfonyl}-1,3,8-triaza-spiro[4.5]dec-1-en-4-one] — higher, 95%
- CC(=O)N(CCO)c1ccc(-c2ccc(S(=O)(=O)N3CCC4(CC3)N=C(c3ccc(F)c(C(F)(F)F)c3)NC4=O)s2)c(C)c1 [Compound 342, N-(4-{5-[2-(4-Fluoro-3-trifluoromethyl-phenyl)-4-oxo-1,3,8-triaza-spiro[4.5]dec-1-ene-8-sulfonyl]-thiophen-2-yl}-3-methyl-phenyl)-N-(2-hydroxy-ethyl)-acetamide] — higher, 93%
- Cc1cc(N2CCOC2=O)ccc1/C=C/S(=O)(=O)N1CCC2(CC1)N=C(C1CCC(C)CC1)NC2=O (stereo not drawn) [Compound 513, 2-(4-methyl-cyclohexyl)-8-{(E)-2-[2-methyl-4-(2-oxo-oxazolidin-3-yl)-phenyl]-ethenesulfonyl}-1,3,8-triaza-spiro[4.5]dec-1-en-4-one] — lower, 33%
- Cc1cc(C(=O)N2CCC(O)(CF)CC2)cc(C)c1/C=C/S(=O)(=O)N1CCC2(CC1)N=C(c1ccc(S(F)(F)(F)(F)F)cc1)NC2=O [Compound 1245, 8-{(E)-2-[4-(4-fluoromethyl-4-hydroxy-piperidine-1-carbonyl)-2,6-dimethyl-phenyl]-ethenesulfonyl}-2-(4-pentafluorosulfanyl-phenyl)-1,3,8-triaza-spiro[4.5]dec-1-en-4-one] — higher, 115%
- COCCN(C(C)=O)c1ccc(/C=C/S(=O)(=O)N2CCC3(CC2)N=C(C2CCC(CCC(F)(F)F)CC2)NC3=O)c(C)c1 (stereo not drawn) [Compound 542, N-(2-methoxy-ethyl)-N-[3-methyl-4-((E)-2-{4-oxo-2-[4-(3,3,3-trifluoro-propyl)-cyclohexyl]-1,3,8-triaza-spiro[4.5]dec-1-ene-8-sulfonyl}-vinyl)-phenyl]-acetamide] — higher, 66%
- Cc1cc(N2C(=O)CNC2=O)ccc1/C=C/S(=O)(=O)N1CCC2(CC1)N=C(c1cccc(OC(F)(F)F)c1)NC2=O [Compound 618, 3-(3-methyl-4-{(E)-2-[4-oxo-2-(3-trifluoromethoxy-phenyl)-1,3,8-triaza-spiro[4.5]dec-1-ene-8-sulfonyl]-vinyl}-phenyl)-imidazolidine-2,4-dione] — higher, 121%
- Cc1ccc(C(=O)N(C)CCO)cc1CCS(=O)(=O)N1CCC2(CC1)N=C(c1cccc(OC(F)(F)F)c1)NC2=O [Compound 413, N-(2-hydroxy-ethyl)-4,N-dimethyl-3-{2-[4-oxo-2-(3-trifluoromethoxy-phenyl)-1,3,8-triaza-spiro[4.5]dec-1-ene-8-sulfonyl]-ethyl}-benzamide] — higher, 56%
- CC(C)(C)NC(=O)N1CCCC(C2=NC3(CCN(S(=O)(=O)c4cccc(Cl)c4)CC3)C(=O)N2)C1 (stereo not drawn) [Compound 454, 3-[8-(3-Chloro-benzenesulfonyl)-4-oxo-1,3,8-triaza-spiro[4.5]dec-1-en-2-yl]-piperidine-1-carboxylic acid tert-butylamide] — lower, 19%
- Cc1cc(C(=O)N2CCN(C(C)C)CC2)ccc1CCS(=O)(=O)N1CCC2(CC1)N=C(c1cccc(C(F)(F)F)c1)NC2=O [Compound 376, 8-{2-[4-(4-isopropyl-piperazine-1-carbonyl)-2-methyl-phenyl]-ethanesulfonyl}-2-(3-trifluoromethyl-phenyl)-1,3,8-triaza-spiro[4.5]dec-1-en-4-one] — higher, 74%
